Data on nine compounds can be found in BindingDB's records for doi:10.1002/cbic.201200316 (Moffitt Cancer Center, 2012).

This assay concerns the target Cyclin-dependent kinase 2 (Homo sapiens, UniProt P24941). The assay is described as follows: Inhibition Assay. The procedure: The inhibitory against activated CDK2-cyclin A2 complex was determined by using the ADP Quest fluorescence assay from (DiscoveRX, Fremont, CA)
`Nc1cc([N+](=O)[O-])ccc1Nc1ccc(O)cc1` [Hit compound, 12] registered an IC50 of more than 150 µM.

For the compound `O=c1cc(-c2ccc(O)cc2)oc2c(O)c(O)c(O)c(O)c12` [2-(4-hydroxyphenyl)-5,6,7,8-tetrakis(oxidanyl)chromen-4-one], the IC50 is more than 150 µM.

As for `Oc1ccc(/N=C/c2c(O)ccc3ccccc23)cc1` [Hit compound, 3], the IC50 is more than 150 µM.

`Cc1ccc(N=Nc2c(O)ccc3nn[nH]c23)cc1` registered an IC50 of more than 150 µM.

For `Nc1ccc2c(c1Cl)C(=O)c1ccc(N)c(Cl)c1C2=O` [2,6-bis(azanyl)-1,5-bis(chloranyl)anthracene-9,10-dione], the 50% inhibitory concentration (IC50) is more than 150 µM.

As for `O=C1c2ccccc2C(=O)C1c1ccccn1`, the IC50 stood at 46 µM.

For the compound `COCc1cc(/N=N/c2cccc(S(N)(=O)=O)c2)c2ccccc2c1N` [Hit compound, 5], the IC50 came out at 53 µM.

Compound `Cc1ccc(/N=N/c2ccc(N)cc2C)c(S(N)(=O)=O)c1` [Hit compound, 7] had an IC50 of more than 150 µM.

In the case of `O=c1[nH]c(O)ccc1N=Nc1ccc(S(=O)(=O)O)cc1` [Hit compound, 4], the IC50 is 45 µM.

A word on the IC50: it is the point on the concentration scale where inhibition reaches its midpoint. Read a low IC50 as greater potency.
